Measurements published in article PMC6768916, “Population pharmacokinetics of fedratinib in patients with myelofibrosis, polycythemia vera, and essential thrombocythemia” (Cancer Chemotherapy and Pharmacology, 2019).
pIC50: −log10 of the molar value. Entries after “also recorded” stand apart in the source; their conditions may differ. Like-named read-outs stand apart in the source and are kept apart here.

Columns and labels:
[1] = human, in vivo; cited from earlier work
[2] = test system: JAK2 V617F-driven aberrant human PV progenitor erythroid differentiation; design: method as in PMID 18394555; conditions: cited from earlier work
[3] = population pharmacokinetic model in patients with MF, PV or ET; type: in vivo, human
Experimental: The population PK analysis utilized data from one phase 1 study (TED12037 [NCT00631462]), four phase 2 studies (ARD11936 [NCT01420770], ARD12042 [NCT01420783], ARD12181 [NCT01523171], ARD12888 [NCT01692366]) and one phase 3 study (EFC12153 [NCT01437787]). Study design, dosing regimen, and PK sampling information are presented in Supplementary Table 1. These studies were conducted in accordance with the Declaration of Helsinki and the International Council for Harmonisation Guideline for Good Clinical Practice (ICH E6). Written informed consent was obtained from all subjects.
Concentrations of fedratinib in plasma were determined using a validated high-performance liquid chromatography with tandem mass spectrometric detection, with good accuracy (− 6.75–8.8%) and precision (4.84–13.11%). The lower limit of quantification was 1 ng/mL, and the calibration range was 1–1000 ng/mL.
Population PK analyses were conducted using a nonlinear mixed-effect modeling approach, as implemented in the NONMEM software version 7.3.0 (ICON Development Solutions, Ellicott City, MD). Plotting of NONMEM outputs was conducted using the R software (version 3.4.1) and RStudio (version 1.1.456, Boston, MA).
In the development of the structural model, one- to three-compartment models with first-order elimination and different absorption models including first-order absorption with and without lag time, zero-order absorption and transit compartment model were tested to fit the plasma concentration-time data. First-order conditional estimation (FOCE) with interaction method was used for parameter estimation, with natural logarithm-transformed plasma fedratinib concentration data. The inter-subject variability was modeled assuming a log-normal distribution. Residual variability was modeled using an additive model. The model selection was based on the objective function value (OFV) using the log-likelihood ratio test, the goodness of fit criteria and visual predictive check (VPC). Covariate model building was carried out using a stepwise procedure, with significance levels set to 0.01 and 0.001 for the forward inclusion and backward elimination steps, respectively. Missing baseline covariates were imputed as the median value in the study population.
Stability of the final PK parameter estimates and the 95% confidence interval (CI) for the parameters were evaluated using the nonparametric bootstrap approach. With this approach, 500 datasets of size equal to the original dataset were generated by random resampling with replacement from the original dataset. The final model was fit to each of the 500 bootstrap datasets and all the model parameters were estimated for each dataset. The median and nonparametric 95% CI (2.5–97.5 percentiles) of the 500 estimates were calculated for each parameter. The ability of the final population PK model to describe the observed concentration data was evaluated by simulating 200 datasets having the same doses, dosing schedules and sampling times as the original dataset and by performing prediction-corrected VPC [18]. The 5th, 50th and 95th prediction percentiles of the fedratinib concentrations at each binned time point were computed for each simulated trial. Thereafter, the nonparametric 90% CI of the 5th, 50th and 95th prediction percentiles at each binned time point were calculated for the 200 simulated trials.

wild-type JAK2 = test system: wild-type JAK2; design: method as in PMID 18394554; conditions: cited from earlier work
[4] = cited from earlier work
FLT3 = test system: FLT3; design: method as in PMID 18394554; conditions: cited from earlier work
[5] = test system: activated mutant JAK2 V617F; design: method as in PMID 18394554; conditions: cited from earlier work
[6] = final model, inter-individual variability

Compound: Cc1cnc(Nc2ccc(OCCN3CCCC3)cc2)nc1Nc1cccc(S(=O)(=O)NC(C)(C)C)c1 [fedratinib, Fedratinib]
- CL/F of healthy subjects [1]: 20.7 to 46.0 L/h
- dose proportionality of exposure [1]: greater than dose-proportional increase
- mean terminal half-life [1]: 62 to 78 h
- inhibition of JAK2 V617F-driven aberrant human PV progenitor erythroid differentiation [2]: significantly inhibits
- increase in exposure (steady-state AUC) with moderate renal impairment vs normal renal function ([3]; 30 ≤ CLcr < 60 mL/min vs CLcr ≥ 90 mL/min): 37%
- increase in exposure (steady-state AUC) with mild renal impairment vs normal renal function ([3]; 60 ≤ CLcr < 90 mL/min vs CLcr ≥ 90 mL/min): 10%
- apparent clearance of a typical PV patient ([3]; CLcr = 78.5 mL/min): 20.0 L/h
- increase in typical AUC with severe renal impairment vs normal renal function ([3]; MF patients, severe renal impairment, N = 3): 59%
- typical value of CL/F, base model ([3]; base model): 13.6 L/h
- typical value of V2/F, base model ([3]; base model): 340 L
- magnitude of changes in V2/F by body weight ([3]; body weight 39.5 to 135 kg): less than 30%
- magnitude of changes in V2/F by dose ([3]; covariate analysis): less than 30%
- linearity of PK with dose ([3]; doses of 200 mg and above): linear, time-invariant PK; also recorded: increased linearly
- CL/F higher in PV patients compared to MF or ET patients ([3]; final model): 54%
- CL/F of a typical MF patient ([3]; final model): 13.0 L/h
- TVCL/F, parameter estimate ([3]; final model): 13.0 L/h
- TVKa, parameter estimate ([3]; final model): 1.57 h⁻¹
- TVQ/F, parameter estimate ([3]; final model): 45.2 L/h
- TVV2/F, parameter estimate ([3]; final model): 311 L
- TVV3/F, parameter estimate ([3]; final model): 1460 L
- V2/F higher in PV patients compared to MF or ET patients ([3]; final model): 87%
- fold higher CL/F in PV patients compared to MF or ET patients ([3]; final model): 1.54 fold
- fold higher V2/F in PV patients compared to MF or ET patients ([3]; final model): 1.87 fold
- TVCL/F, bootstrap median (95% CI) ([3]; final model, 484 of 500 bootstrap replicates): 13.1 (12.4 to 13.9) L/h
- TVALAG1, parameter estimate ([3]; final model, absorption lag time): 0.265 h
- COVCL/F-V2/F, bootstrap median (95% CI) ([3]; final model, bootstrap): 0.193 (0.145 to 0.249)
- PV on V2/F, bootstrap median (95% CI) ([3]; final model, bootstrap): 1.85 (1.40 to 2.42)
- TVALAG1, bootstrap median (95% CI) ([3]; final model, bootstrap): 0.265 (0.264 to 0.321) h
- TVKa, bootstrap median (95% CI) ([3]; final model, bootstrap): 1.64 (1.34 to 2.05) h^−1
- TVQ/F, bootstrap median (95% CI) ([3]; final model, bootstrap): 45.2 (38.5 to 52.9) L/h
- TVV2/F, bootstrap median (95% CI) ([3]; final model, bootstrap): 313 (282 to 343) L
- TVV3/F, bootstrap median (95% CI) ([3]; final model, bootstrap): 1470 (1190 to 1790) L
- Weight on V2/F, bootstrap median (95% CI) ([3]; final model, bootstrap): 0.733 (0.383 to 1.10)
- σ^2 (Log additive), bootstrap median (95% CI) ([3]; final model, bootstrap): 0.194 (0.159 to 0.264)
- ω^2, Ka, bootstrap median (95% CI) ([3]; final model, bootstrap): 1.09 (0.728 to 1.54)
- ω^2, V2/F, bootstrap median (95% CI) ([3]; final model, bootstrap): 0.371 (0.247 to 0.510)
- COVCL/F-V2/F, parameter estimate ([3]; final model, covariance): 0.197
- PV on V2/F, parameter estimate ([3]; final model, covariate factor if PV): 1.87
- Weight on V2/F, parameter estimate ([3]; final model, exponent of (Weight/70.1)): 0.727
- ω^2, Ka, parameter estimate [3, 6]: 1.07
- ω^2, V2/F, parameter estimate [3, 6]: 0.383
- σ^2 (Log additive), parameter estimate ([3]; final model, residual variability): 0.201
- effect of age, body weight, sex, race and liver function on exposure/PK ([3]; population PK covariate analysis): No clinically meaningful effect
- selectivity for JAK2 over JAK1, JAK3 and TYK2 (wild-type JAK2): selective for JAK2 over JAK1, JAK3 and TYK2
- pIC50 (wild-type JAK2; wild-type JAK2): 8.52
- dose proportionality of exposure ([4]; 300–500 mg at steady state): approximately dose-proportional
- mean accumulation ratio ([4]; 300–500 mg once daily, steady state): 2.95–3.88
- time to peak plasma concentration ([4]; human, in vivo, po): 0.5 to 4 h
- dose proportionality of exposure ([4]; human, in vivo): greater than dose-proportional increase
- time to steady state of plasma levels ([4]; once daily dosing): ≤ 15 days
- pIC50 (FLT3): 7.82
- pIC50 [5]: 8.52
